Assay results taken from patent publication US20110144128A1, “Heterocyclic Carboxamide Compounds as Steroid Nuclear Receptors Ligands” (EXELIXIS, INC., priority 2005, published 2011).
pIC50: −log10 of the molar value.

Assays:
AR, ERα, GR and PR = test: selectivity assays GAL4-AR, GAL4-ERα, GAL4-GR and GAL4-PR, antagonist mode; assay type: cell-based; conditions: antagonist activity against MR compared to AR
Experimental: In certain cases, compounds were also evaluated for activity in selectivity assays with other steroid hormone receptor members, including AR, ER, GR and PR, as well as GAL4 alone. Steroid receptors used for selectivity assays were essentially generated as described above for pCMX-GAL4-MR, and comprised the LBD and a portion of the hinge region of the nuclear receptor of interest cloned in frame into the vector pCMX-GAL4 (Perlmann et al., 1993,Genes & Development 7:1411-1422) as described above.
Assays run in antagonist mode included agonists as follows: AR; 25 nM dihydrotestosterone (DHT), ER; 4.5 nM estradiol, GR; 20 nM dexamethasone, and PR; 2 nM medroxyprogesterone (MPA), respectively. Assays run in agonist mode contained no supplemental compounds.
(§1) The following table provides in vitro MR activity data of representative compounds described in the Examples. […] The “+” mark under the selectivity column is given to those compounds having greater than ten-fold antagonist activity against MR compared to at least one nuclear receptor selected from AR, ERα, GR and PR, as determined from the GAL4-AR, GAL4-ERα, GAL4-GR and GAL4-PR assays. The “++” mark under the selectivity column identifies those compounds having greater than ten-fold antagonist activity against MR compared to the four nuclear receptors AR, ERα, GR and PR, as determined from the GAL4-AR, GAL4-ERα, GAL4-GR and GAL4-PR assays.

human MR = target: T1, human MR (Homo sapiens, UniProt P08235); test: GAL4-MR cell based assay, antagonist format
T1 construct: expressed in transfected cells; host or cells: CV-1 (African Green Monkey Kidney Cells), transiently transfected with pCMX-GAL4-MR
T1 sequence (P08235 671-984): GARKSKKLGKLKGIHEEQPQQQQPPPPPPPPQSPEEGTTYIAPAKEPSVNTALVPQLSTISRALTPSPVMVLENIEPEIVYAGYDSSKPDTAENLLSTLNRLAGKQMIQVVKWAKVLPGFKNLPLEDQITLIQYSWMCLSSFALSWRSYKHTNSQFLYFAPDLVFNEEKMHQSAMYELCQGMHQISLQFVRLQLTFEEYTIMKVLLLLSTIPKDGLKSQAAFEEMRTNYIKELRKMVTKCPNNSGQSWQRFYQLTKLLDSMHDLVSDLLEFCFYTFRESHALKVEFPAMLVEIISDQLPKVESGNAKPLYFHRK
Experimental: Compound activity was determined in a cell-based assay using a GAL4-MR chimera to identify compounds with the ability to modulate MR activity.
The pCMX-GAL4-MR expression plasmid was constructed by cloning nucleotides encoding amino acids 671 to 984 of human MR (see GenBank sequence AAA59571) into the vector pCMX-GAL4 (Perlmann et al., 1993,Genes & Development 7:1411-1422) comprising nucleotides encoding for amino acids 1-147 of the GAL4 DNA binding domain.
The TK-MH 100x4-Luc (GAL4UAS-TK-Luciferase) reporter construct was constructed by insertion of four copies of the Gal4 UAS (Kang et al. 1993, J. Biol. Chem. 268:9629-9635) into the Hind III site of TK-Luc. The parental plasmid, TK-Luc, was prepared by insertion of the Herpes simplex virus thymidine kinase gene promoter (−105 to +51) obtained from the plasmid pBLCAT2 by digestion with HindIII and XhoI (described in Luckow et al., 1987, Nuc. Acid. Res. 15:5490) into the plasmid MMTV-LUC described by Hollenberg and Evans, 1988, Cell 55:899-906) after removal of MMTV-LTR promoter sequence from MMTV-LUC via digestion with HindIII and XhoI. Correct cloning was confirmed by restriction digestion and/or sequencing.
Assays were performed using CV-1 (African Green Monkey Kidney Cells) (ATCC) cells grown in T175 flasks at a density of 3×10^6 cells/flask in DMEM with 5% FBS. Cells were transfected one day after plating at 70-80 percent confluency with a DNA mixture containing (per T175 flask) 9 […] pCMX-GAL4-MR, 9 μg TK-MH100x4-Luc, and 2 μg pCMX β-Gal using the transfection reagent FuGENE6 (Roche Molecular Biochemicals, Indianapolis, Ind.) following recommended protocols and instructions provided by the manufacturer, and incubated with transfection reagents for 5 hours at 37° C.
Transfected cells were trypsinized, resuspended in media, and 45 μL was added to assay plates at a density of approximately 5,000 cells/well using a MultiDrop dispenser (MTX Lab Systems, Inc., VA). The assay plates containing both compounds and screening cells were incubated for approximately 20 hours at 37° C. and 5% CO2 in a tissue culture incubator.
After incubation of the transfected cells with compounds, Lysis buffer (1% Triton X-100, 10% Glycerol, 5 mM DTT, 1 mM EGTA, 25 mM Tricine, pH 7.8) and Luciferin assay buffer (0.73 mM ATP, 22.3 mM Tricine, 0.11 mM EDTA, 33.3 mM DTT, 0.2M MgSO4, 11 mM Luciferin, 6.1 mM Coenzyme A, 0.01 mM HEPES, pH 7.8) were prepared. Media was removed from the plates and lysis buffer and luciferin assay buffer mixed in a 1:1 ratio and then 30 μl of the mixture was added to each well using a Multidrop dispenser. Plates were read on the Northstar (Applied Biosystems, Foster City, Calif.) and data was analyzed using ActivityBase (ID Business Solutions, Ltd., Guildford, Surrey, UK). If required, luciferase values may be normalized for transfection efficiency by measuring β-galactosidase activity based on expression from the pCMX-βGal expression plasmid as described previously (Willy et al., 1995, Gene & Development, 9:1033-1045).
as §1

SMILES | pIC50 (human MR) | Selectivity (AR, ERα, GR and PR)
Cc1nc(C(=O)Nc2ccc(S(C)(=O)=O)cc2)n(C)c1-c1ccccc1Oc1ccccc1 [1,4-dimethyl-5-(2-phenoxy-phenyl)-1H-imidazole-2-carboxylic acid (4-methanesulfonyl-phenyl)-amide] | > 6.30 | ++ (greater than ten-fold antagonist activity against MR compared to the four nuclear receptors AR, ERα, GR and PR)
Cc1c(C(=O)Nc2ccc(S(N)(=O)=O)cc2)cn(C)c1-c1ccccc1C(F)(F)F [1,4-dimethyl-5-(2-trifluoromethyl-phenyl)-1H-pyrrole-3-carboxylic acid (4-sulfamoyl-phenyl)-amide] | > 6.30 | ++ (greater than ten-fold antagonist activity against MR compared to the four nuclear receptors AR, ERα, GR and PR)
Cc1cc(C(=O)Nc2ccc(S(C)(=O)=O)cc2)c(C)n1-c1ccc(NC(=O)c2ccc(C(F)(F)F)cc2C(F)(F)F)cc1C(F)(F)F [1-[4-(2,4-bis-trifluoromethyl-benzoylamino)-2-trifluoromethyl-phenyl]-2,5-dimethyl-1H-pyrrole-3-carboxylic acid (4-methanesulfonyl-phenyl)-amide] | 5.30 to 6.00 | + (greater than ten-fold antagonist activity against MR compared to at least one nuclear receptor selected from AR, ERα, GR and PR)
Cc1cnc(NC(=O)c2cc(C)n(-c3ccccc3C(F)(F)F)c2C)s1 [2,5-Dimethyl-1-(2-trifluoromethyl-phenyl)-1H-pyrrole-3-carboxylic acid (5-methyl-thiazol-2-yl)-amide] | > 6.30 | –
Cc1cc(C(=O)Nc2ccc3ccccc3c2)c(C)n1-c1ccccc1C(F)(F)F [2,5-Dimethyl-1-(2-trifluoromethyl-phenyl)-1H-pyrrole-3-carboxylic acid naphthalen-2-ylamide] | > 6.30 | –

The next lines start with results.

pIC50 (human MR) | SMILES | Selectivity (AR, ERα, GR and PR)
> 6.30 | Cc1c(C(=O)Nc2ccc(S(C)(=O)=O)cc2)nn(C)c1-c1ccccc1C(F)(F)F [1,4-dimethyl-5-(2-trifluoromethyl-phenyl)-1H-pyrazole-3-carboxylic acid (4-methanesulfonyl-phenyl)-amide] | + (greater than ten-fold antagonist activity against MR compared to at least one nuclear receptor selected from AR, ERα, GR and PR)
> 6.30 | Cc1cc(C(=O)Nc2ccc(S(C)(=O)=O)cc2)c(C)n1-c1ccccc1/C=C/C(C)(C)C [1-[2-((E)-3,3-Dimethyl-but-1-enyl)-phenyl]-2,5-dimethyl-1H-pyrrole-3-carboxylic acid (4-methanesulfonyl-phenyl)-amide] | ++ (greater than ten-fold antagonist activity against MR compared to the four nuclear receptors AR, ERα, GR and PR)
> 6.30 | Cc1ccc(NC(=O)c2cc(C)n(-c3ccccc3C(F)(F)F)c2C)cc1Cl [2,5-Dimethyl-1-(2-trifluoromethyl-phenyl)-1H-pyrrole-3-carboxylic acid (3-chloro-4-methyl-phenyl)-amide] | –
6.00 to 6.30 | Cc1ccc(NC(=O)c2cc(C)n(-c3ccccc3C(F)(F)F)c2C)cc1F [2,5-Dimethyl-1-(2-trifluoromethyl-phenyl)-1H-pyrrole-3-carboxylic acid (3-fluoro-4-methyl-phenyl)-amide] | –
> 6.30 | Cc1cc(C(=O)Nc2ccc(S(N)(=O)=O)cc2)c(C)n1-c1ccccc1C(F)(F)F [2,5-Dimethyl-1-(2-trifluoromethyl-phenyl)-1H-pyrrole-3-carboxylic acid (4-sulfamoyl-phenyl)-amide] | ++ (greater than ten-fold antagonist activity against MR compared to the four nuclear receptors AR, ERα, GR and PR)
6.00 to 6.30 | Cc1sc(C(=O)Nc2ccc(S(C)(=O)=O)cc2)c(C)c1-c1ccccc1C(F)(F)F [3,5-dimethyl-4-(2-trifluoromethyl-phenyl)-thiophene-2-carboxylic acid (4-methanesulfonyl-phenyl)-amide] | –
5.30 to 6.00 | Cc1c(C(=O)Nc2ccc(S(C)(=O)=O)cc2)ncn1-c1ccccc1C(F)(F)F [5-methyl-1-(2-trifluoromethyl-phenyl)-1H-imidazole-4-carboxylic acid (4-methanesulfonyl-phenyl)-amide] | –
